Results on 15 compounds are retold here after patent publication US9226927B2, “Gamma secretase inhibitors” (MERCK SHARP & DOHME CORP., priority 2011, dated 2016).

The target of this test is γ-secretase (Homo sapiens (Human), UniProt P49768). Briefly: γ-secretase membrane assay with Aβ40 ECL immunoassay. Conditions: membranes of 293 cells expressing C99 (SPC99-lon), 37° C. for 1 h, Aβ 40 by ECL immunoassay. The class given is biochemical. Here is the method:
Gamma-secretase activity was determined as described by Zhang et al. (Biochemistry, 40 (16), 5049-5055, 2001), which is herein incorporated by reference. Activity is expressed either as a percent inhibition or as the concentration of compound producing 50% inhibition of enzyme activity.
The construct SPC99-Ion, which contains the first 18 residues and the C-terminal 99 amino acids of APP carrying the London mutation, has been described (Zhang, L., Song, L., and Parker, E. (1999) J. Biol. Chem. 274, 8966-8972). Upon insertion into the membrane, the 17 amino acid signal peptide is processed, leaving an additional leucine at the N-terminus of Aβ. SPC99-lon was cloned into the pcDNA4/TO vector (Invitrogen) and transfected into 293 cells stably transfected with pcDNA6/TR, which is provided in the T-REx system (Invitrogen). The transfected cells were selected in Dulbecco's modified Eagle's media (DMEM) supplemented with 10% fetal bovine serum, 100 units/mL penicillin, 100 µg/mL streptomycin, 250 µg/mL zeocin, and 5 µg/mL blasticidin (Invitrogen). Colonies were screened for Aβ production by inducing C99 expression with […] tetracycline for 16-20 h and analyzing conditioned media with a sandwich immunoassay (see below). One of the clones, designated as pTRE.15, was used in these studies.
C99 expression in cells was induced with […] tetracycline for 20 h. The cells were pretreated with […] 12-myristate 13-acetate (PMA) and […] brefeldin A (BFA) for 5-6 h at 37 C before harvesting. The cells were washed 3 times with cold phosphate-buffered saline (PBS) and harvested in buffer A containing 20 mM Hepes (pH 7.5), 250 mM sucrose, 50 mM KCl, 2 mM EDTA, 2 mM EGTA, and Complete protease inhibitor tablets (Roche Molecular Biochemicals). The cell pellets were flash-frozen in liquid nitrogen and stored at −70° C. before use.
To make membranes, the cells were resuspended in buffer A and lysed in a nitrogen bomb at 600 psi. The cell lysate was centrifuged at 1500 g for 10 min to remove nuclei and large cell debris. The supernatant was centrifuged at 100000 g for 1 h. The membrane pellet was resuspended in buffer A plus 0.5 M NaCl, and the membranes were collected by centrifugation at 200000 g for 1 h. The salt-washed membrane pellet was washed again in buffer A and centrifuged at 100000 g for 1 h. The final membrane pellet was resuspended in a small volume of buffer A using a Teflon-glass homogenizer. The protein concentration was determined, and membrane aliquots were flash-frozen in liquid nitrogen and stored at −70° C.
To measure γ-secretase activity, membranes were incubated at 37° C. for 1 h in 50 μL of buffer containing 20 mM Hepes (pH 7.0) and 2 mM EDTA. At the end of the incubation, Aβ 40 and Aβ 42 were measured using an electrochemiluminescence (ECL)-based immunoassay. Aβ 40 was identified with antibody pairs TAG-G2-10 and biotin-W02, while Aβ 42 was identified with TAG-G2-11 and biotin-4G8. The ECL signal was measured using an ECL-M8 instrument (IGEN International, Inc.) according to the manufacturer's instructions. The data presented were the means of the duplicate or triplicate measurements in each experiment. The characteristics of γ-secretase activity described were confirmed using more than five independent membrane preparations.
For `O=S(=O)(CC[C@@H]1OCC[C@@]2(S(=O)(=O)c3ccc(Cl)cc3)c3c(F)ccc(F)c3OC[C@@H]12)CCn1cccn1` [Compound 4], the IC50 (as a rule, the concentration that inhibits the measured activity by half) amounted to 1.4 nM.
Next, `O=S(=O)(CC[C@@H]1OCC[C@@]2(S(=O)(=O)c3ccc(Cl)cc3)c3c(F)ccc(F)c3OC[C@@H]12)Cc1ccccn1` [Compound 8a]: 1.9 nM.
As for `O=S(=O)(CC[C@@H]1OCC[C@@]2(S(=O)(=O)c3ccc(Cl)cc3)c3c(F)ccc(F)c3OC[C@@H]12)Cc1cccnc1` [Compound 8b], the figure is 6.6 nM; as for `O=S(=O)(CC[C@@H]1OCC[C@@]2(S(=O)(=O)c3ccc(Cl)cc3)c3c(F)ccc(F)c3OC[C@@H]12)Cc1ncon1` [Compound 11], 1.7 nM.
As for `Cc1nc(CS(=O)(=O)CC[C@@H]2OCC[C@@]3(S(=O)(=O)c4ccc(Cl)cc4)c4c(F)ccc(F)c4OC[C@@H]23)no1` [Compound 14], the figure is 5.8 nM.
Consider `O=c1ccc(S(=O)(=O)CC[C@@H]2OCC[C@@]3(S(=O)(=O)c4ccc(Cl)cc4)c4c(F)ccc(F)c4OC[C@@H]23)c[nH]1` [Compound 25a], for which the IC50 came out at 18.7 nM.
Compound `O=S(=O)(CC[C@@H]1OCC[C@@]2(S(=O)(=O)c3ccc(Cl)cc3)c3c(F)ccc(F)c3OC[C@@H]12)c1cccnn1` [Compound 25b] came in with a half-inhibitory concentration (IC50) of 4.5 nM.
`O=S(=O)(CC[C@@H]1OCC[C@@]2(S(=O)(=O)c3ccc(Cl)cc3)c3c(F)ccc(F)c3OC[C@@H]12)c1cnccn1` [Compound 25c]: the IC50 was 5.5 nM.
Next, `O=S(=O)(CC[C@@H]1OCC[C@@]2(S(=O)(=O)c3ccc(Cl)cc3)c3c(F)ccc(F)c3OC[C@@H]12)c1ccnnc1` [Compound 25d]: 10.2 nM; `O=S(=O)(CC[C@@H]1OCC[C@@]2(S(=O)(=O)c3ccc(Cl)cc3)c3c(F)ccc(F)c3OC[C@@H]12)c1ncccn1` [Compound 25e]: 6.4 nM.
`O=S(=O)(CC[C@@H]1OCC[C@@]2(S(=O)(=O)c3ccc(Cl)cc3)c3c(F)ccc(F)c3OC[C@@H]12)c1ccncn1` [Compound 25f]: the IC50 turned out to be 2.9 nM.
As for `O=S(=O)(CC[C@@H]1OCC[C@@]2(S(=O)(=O)c3ccc(Cl)cc3)c3c(F)ccc(F)c3OC[C@@H]12)c1cncnc1` [Compound 25g], the figure is 12.9 nM; as for `COc1ccc(S(=O)(=O)CC[C@@H]2OCC[C@@]3(S(=O)(=O)c4ccc(Cl)cc4)c4c(F)ccc(F)c4OC[C@@H]23)cn1` [Compound 25h], 16.5 nM.
As for `O=c1[nH]cccc1S(=O)(=O)CC[C@@H]1OCC[C@@]2(S(=O)(=O)c3ccc(Cl)cc3)c3c(F)ccc(F)c3OC[C@@H]12` [Compound 27a], the figure is 2.8 nM; as for `Nc1ncccc1S(=O)(=O)CC[C@@H]1OCC[C@@]2(S(=O)(=O)c3ccc(Cl)cc3)c3c(F)ccc(F)c3OC[C@@H]12` [Compound 27b], 18 nM.
